The text below walks through data of patent US6417212B1, “Modulators of peroxisome proliferator activated receptors” (Eli Lilly & Company, priority 1999, dated 2002).

Test [1] concerns Hu apoAI transgenic mice. The experiment in a line: Evaluation of triglyceride and cholesterol levels in Hu apoAI transgenic mice. In kind it is in vivo. The settings on record: for change in vivo at 30 mg/kg / inhibition in vivo at 30 mg/kg: Mus musculus, 168 h, 30 mg/kg daily oral gavage for 7 days; for change in vivo at 30 mg/kg: pooled sera, read-out: % HDLc Increase (serum, FPLC area under the curve, over vehicle); for inhibition in vivo at 30 mg/kg: serum 3 hours after dosing on day 7, read-out: % Triglyceride Decrease (serum, over mice receiving vehicle). On the procedure:
After an acclimation period of 2 weeks, animals were individually identified by ear notches, weighed, and assigned to groups based on body weight. Beginning the following morning, mice were dosed daily by oral gavage for 7 days using a 20 gauge, 11⁄2 curved disposable feeding needle (Popper & Sons). […] Prior to termination on day 7, mice were weighed and dosed. Three hours after dosing, animals were anesthetized by inhalation of isoflurane (2-4%; Abbott Laboratories, Chicago, Ill.) and blood obtained via cardiac puncture (0.7-1.0 ml). Whole blood was transferred to serum separator tubes (Vacutainer SST), chilled on ice, and permitted to clot. Serum was obtained after centrifugation at 4° C. and frozen until analysis for triglycerides, total cholesterol, compound levels, and serum lipoprotein profile by fast protein liquid chromatography (FPLC) coupled to an inline detection system. After sacrifice by cervical dislocation, the liver, heart and epididymal fat pads were excised and weighed. […] The percentage decrease in triglyceride serum levels in mice receiving a compound of the invention over mice receiving vehicle are reported in Table 2. […] The absorbance of the dye produced is linearly related to the analyte in the sample. The assays were further modified in our laboratory for use in a 96 well format. […] An additional aliquot of sample, pipetted to a third well and diluted in 200 μl water, provided a blank for each specimen. […] All samples from an experiment were assayed at the same time to minimize inter-assay variability. Serum lipoproteins were separated and cholesterol quantitated with an in-line detection system. […] The change in voltage corresponding to change in cholesterol concentration was plotted vs time and the area under the curve corresponding to the elution of VLDL, LDL and HDL was calculated using Perkin Elmer Turbochrome software.

In test [2] the test system is db/db mice. In words: Evaluation of glucose levels in db/db mice. The settings on record: Mus musculus, 168 h; 30 mg/kg daily oral gavage for 7 days; 100% = glucose not different from lean values; read-out: Glucose Normalisation. The format is in vivo. On the procedure: After an acclimation period of 2 weeks, animals were individually identified by ear notches, weighed, and bled via the tail vein for determination of initial glucose levels. Blood was collected (100 μl) from unfasted animals by wrapping each mouse in a towel, cutting the tip of the tail with a scalpel, and milking blood from the tail into a heparinized capillary tube (Fisher) balanced on the edge of the bench. Sample was discharged into a heparinized microtainer with gel separator (VWR) and retained on ice. Plasma was obtained after centrifugation at 4° C. and glucose measured immediately. Remaining plasma was frozen until the completion of the experiment, when glucose and triglycerides were assayed in all samples. Animals were grouped based on initial glucose levels and body weights. Beginning the following morning, mice were dosed daily by oral gavage for 7 days using a 20 gauge, 1½″ curved disposable feeding needle. […] On day 7, mice were weighed and bled (tail vein) 3 hours after dosing. Twenty-four hours after the 7th dose (i.e., day 8), animals were bled again (tail vein). Samples obtained from conscious animals on days 0, 7 and 8 were assayed for glucose. After the 24 hour bleed, animals were weighed and dosed for the final time. Three hours after dosing on day 8, animals were anesthetized by inhalation of isoflurane and blood obtained via cardiac puncture (0.5-0.7 ml). Whole blood was transferred to serum separator tubes, chilled on ice and permitted to clot. Serum was obtained after centrifugation at 4° C. and frozen until analysis for compound levels. After sacrifice by cervical dislocation, the liver, heart and epididymal fat pads were excised and weighed.
The absorbance of the dye produced is linearly related to the analyte in the sample. The assays were further modified in our laboratory for use in a 96 well format. […] An additional aliquot of sample, pipetted to a third well and diluted in 200 μl water, provided a blank for each specimen. […] Sample absorbances were compared to a standard curve (100-800, 10-500, and 100-400 mg/dl for glucose, triglycerides and total cholesterol, respectively). […] All samples from an experiment were assayed at the same time to minimize inter-assay variability.

Test [3] deals with huPPARα. In words: Cotransfection assay in CV-1 cells, huPPARα (GAL4 chimeric system). The format is cell-based, human. The settings on record: luciferase reporter, relative to PPARα agonist reference molecule. The protocol: DNA-dependent binding (ABCD binding) was carried out using SPA technology with PPAR receptors. Tritium-labeled PPARγ and PPARα agonists were used as radioligands for generating displacement curves and IC50 values with compounds of the invention. Cotransfection assays were carried out in CV-1 cells. The reporter plasmid contained an acylCoA oxidase (AOX) PPRE and TK promoter upstream of the luciferase reporter cDNA. Appropriate PPARs and RXRα were constitutively expressed using plasmids containing the CMV promoter. For PPARα and PPARβ, interference by endogenous PPARγ in CV-1 cells was an issue. In order to eliminate such interference, a GAL4 chimeric system was used in which the DNA binding domain of the transfected PPAR was replaced by that of GAL4, and the GAL4 response element was utilized in place of the AOX PPRE. Cotransfection efficacy was determined relative to PPARα agonist and […] reference molecules. Efficacies were determined by computer fit to a concentration-response curve, or in some cases at a single high concentration of agonist (10 μM). For binding or cotransfection studies with receptors other than PPARs, similar assays were carried out using appropriate ligands, receptors, reporter constructs, etc., for that particular receptor.
These studies were carried out to evaluate the ability of compounds of the invention to bind to and/or activate various nuclear transcription factors, particularly huPPARα (“hu” indicates “human”) and huPPARγ. These studies provide in vitro data concerning efficacy and selectivity of compounds of the invention. Furthermore, binding and cotransfection data for compounds of the invention were compared with corresponding data for marketed compounds that act on either huPPARα or huPPARγ.
(Reporter assays use an easily measured gene product as a stand-in for the process of interest.)

Where [4] appears, read: fenofibrate 100 mg/kg oral, 7 days, vs vehicle.

Consider `Cc1oc(-c2ccc(-c3ccccc3)cc2)nc1CCOc1ccc(OC(C)(C)C(=O)O)cc1` [Example 1, 2-{4-[2-(2-Biphenyl-4-yl-5-methyloxazol-4-yl)ethoxy]phenoxy}-2-methylpropionic acid], for which, in test [1], the change in vivo at 30 mg/kg was determined as 160% and the inhibition in vivo at 30 mg/kg is 62.2%. In addition, the inhibition in vivo at 30 mg/kg in test [2] is 90%.
For the molecule `Cc1oc(-c2cccc(-c3ccccc3)c2)nc1CCOc1ccc(OC(C)(C)C(=O)O)cc1` [Example 3, 2-{4-[2-(2-Biphenyl-3-yl-5-methyloxazol-4-yl)ethoxy]phenoxy}-2-methylpropionic acid], the change in vivo at 30 mg/kg in test [1] was 69%. For the same molecule, the inhibition in vivo at 30 mg/kg came to 51.2% in test [1] and 93% in test [2].
On to `Cc1oc(-c2ccc(-c3cccc4ccccc34)cc2)nc1CCOc1ccc(OC(C)(C)C(=O)O)cc1` [Example 8, 2-Methyl-2-(4-{2-[5-methyl-2-(4-naphthalen-1-ylphenyl)oxazol-4-yl]ethoxy}phenoxy)propionic acid], for which, in test [1], the change in vivo at 30 mg/kg worked out at 41% and the inhibition in vivo at 30 mg/kg worked out at 31.8%. Further, in test [2], the inhibition in vivo at 30 mg/kg amounted to 19%.
For `Cc1oc(-c2ccc(-c3ccccc3C(F)(F)F)cc2)nc1CCOc1ccc(OC(C)(C)C(=O)O)cc1` [Example 12, 2-Methyl-2-(4-{2-[5-methyl-2-(2′-trifluoromethyl-biphenyl-4-yl)-oxazol-4-yl]-ethoxy}-phenoxy)propionic acid], in test [1], the change in vivo at 30 mg/kg was 29% and the inhibition in vivo at 30 mg/kg turned out to be 37.6%. Also, the inhibition in vivo at 30 mg/kg in test [2] came to 44%.
On to `Cc1oc(-c2cccc(-c3ccccc3)c2)nc1CCOc1cccc(OC(C)(C)C(=O)O)c1` [Example 22, 2-{3-[2-(2-Biphenyl-3-yl-5-methyloxazol-4-yl)ethoxy]phenoxy}-2-methylpropionic acid], for which, in test [1], the change in vivo at 30 mg/kg came to 191% and the inhibition in vivo at 30 mg/kg was found to be 73.6%. Further, the inhibition in vivo at 30 mg/kg in test [2] is 102%.
Consider `Cc1cc(OCCc2nc(-c3ccc(-c4ccccc4)cc3)oc2C)ccc1OC(C)(C)C(=O)O` [Example 24, 2-{4-[2-(2-Biphenyl-4-yl-5-methyloxazol-4-yl)-ethoxy]-2-methylphenoxy}-2-methylpropionic acid], for which, in test [1], the change in vivo at 30 mg/kg was 72% and the inhibition in vivo at 30 mg/kg is 62.3%. Besides, the inhibition in vivo at 30 mg/kg in test [2] stood at 55%.
`CCCCc1cc(OC(C)(C)C(=O)O)ccc1OCCc1nc(-c2ccc(-c3ccccc3)cc2)oc1C` [Example 31, 2-{4-[2-(2-Biphenyl-4-yl-5-methyloxazol-4-yl)ethoxy]-3-butylphenoxy}-2-methylpropionic acid]: in test [1], the change in vivo at 30 mg/kg was 217% and the inhibition in vivo at 30 mg/kg amounted to 66.7%. For the same molecule, in test [2], the inhibition in vivo at 30 mg/kg was determined as 89%.
In the same order, the values of `Cc1oc(-c2ccc(-c3ccccc3)cc2)nc1CCOc1ccc(OC(C)(C)C(=O)O)c(-c2ccccc2)c1` [Example 38, 2-{5-[2-(2-Biphenyl-4-yl-5-methyloxazol-4-yl)-ethoxy]-biphenyl-2-yloxy}-2-methyl-propionic acid] are 34%, 53.3% and 59%.
With `Cc1oc(-c2ccc(-c3ccccc3)cc2)nc1CCOc1ccc(OC(C)(C)C(=O)O)c2ccccc12` [Example 48, 2-{4-[2-(2-Biphenyl-4-yl-5-methyloxazol-4-yl)ethoxy]naphthalen-1-yloxy}-2-methyl propionic acid], in test [1], the change in vivo at 30 mg/kg was 89% and the inhibition in vivo at 30 mg/kg worked out at 43.7%. Besides, in test [2], the inhibition in vivo at 30 mg/kg was found to be 31%.
Take `Cc1oc(-c2cccc(-c3ccccc3)c2)nc1CCOc1ccc(OC(C)(C)C(=O)O)c2ccccc12` [Example 49, 2-{4-[2-(2-Biphenyl-3-yl-5-methyloxazol-4-yl)ethoxy]naphthalen-1-yloxy}-2-methyl propionic acid]: in test [1], the change in vivo at 30 mg/kg stood at 34% and the inhibition in vivo at 30 mg/kg turned out to be 48.7%. Further, the inhibition in vivo at 30 mg/kg in test [2] is 39%.
With `Cc1oc(-c2ccc(-c3ccccc3)cc2)nc1CCOc1ccc(OC(C)(C)C(=O)O)c2c1CCCC2` [Example 50, 2-{4-[2-(2-Biphenyl-4-yl-5-methyloxazol-4-yl)-ethoxy]-5,6,7,8-tetrahydronaphthalen-1-yloxy}-2-methyl propionic acid], in test [1], the change in vivo at 30 mg/kg came out at 95% and the inhibition in vivo at 30 mg/kg was 53.9%. In addition, the inhibition in vivo at 30 mg/kg in test [2] amounted to 42%.
Turning to `Cc1oc(-c2cccc(-c3ccccc3)c2)nc1CCOc1ccc(OC(C)(C)C(=O)O)c2c1CCCC2` [Example 51, 2-{4-[2-(2-Biphenyl-3-yl-5-methyloxazol-4-yl)-ethoxy]-5,6,7,8-tetrahydronaphthalen-1-yloxy}-2-methyl propionic acid], in test [1], the change in vivo at 30 mg/kg amounted to 53% and the inhibition in vivo at 30 mg/kg was 41.6%. Moreover, the inhibition in vivo at 30 mg/kg in test [2] is 31%.
The like results for `CCCc1cc(OCCc2nc(-c3ccc(-c4ccccc4)cc3)oc2C)ccc1OC(C)(C)C(=O)O` [Example 60, 2-{4-[2-(2-Biphenyl-4-yl-5-methyloxazol-4-yl)-ethyloxy]-2-propylphenoxy}-2-methyl-propionic acid] were, in that order, 38%, 40.8% and 68%.
The like results for `CCCc1cc(OCCc2nc(-c3ccc(-c4ccccc4)cc3)oc2C)ccc1OCC(=O)O` [Example 62, {4-[2-(2-Biphenyl-4-yl-5-methyl-oxazol-4-yl)-ethoxy]-2-propyl-phenoxy}-acetic acid] were, in that order, 56%, 45.5% and 36%.
For the molecule `Cc1c(C)c2c(c(C)c1O)CCC(C)(COc1ccc(CC3SC(=O)NC3=O)cc1)O2` (stereo not shown) [Troglitazone, reference compound], the “huPPARα CTF Efficacy” value in test [3] stood at 0%.
With `CC(C)OC(=O)C(C)(C)Oc1ccc(C(=O)c2ccc(Cl)cc2)cc1` [fenofibrate, reference compound], in test [1] (setting [4]), the “mean elevation of total serum cholesterol” value amounted to 41%, the “mean percent increase of HDLc” value turned out to be 48% and the “mean reduction of triglycerides” value turned out to be 37%. Besides, the “HDLc peak area (FPLC)” value in test [1] (fenofibrate 100 mg/kg oral, 7 days, vehicle 47-62 v-sec) is 68-96 v-sec. Also, in test [1] (fenofibrate 100 mg/kg oral, 7 days, vehicle 60-80 mg/dl), the average triglycerides values fell in the range of 33 to 58 mg/dL. In addition, the “average total serum cholesterol values” in test [1] (fenofibrate 100 mg/kg oral, 7 days, vehicle 148-180 mg/dl) was 190 to 280 mg/dL.
